Results reported in article PMC7536268, “Increased Antimicrobial Activity of Colistin in Combination With Gamithromycin Against Pasteurella multocida in a Neutropenic Murine Lung Infection Model” (Frontiers in Microbiology, 2020).
Where a SMILES comes first, the peptide text is derived from it. Bridges are numbered along the chain shown (N, C = ends). [ ]: non-standard residue; d: D form. The star is where a group is joined. X1 = CC[C@H](C)CCCCC(=O)*; Dab = NCC[C@H](N)C(=O)O

Experiments:
[1] = test system: Pasteurella multocida strains (D18, T5, and WJ11); experiment: In vivo pharmacodynamics, neutropenic murine pneumonia model
Excerpt: (§1) Five-week-old specific-pathogen-free female Institute of Cancer Research (ICR) mice weighing 20–22 g obtained from the Laboratory Animal Center of the Southern Medical University (SCXK 2016-0041, Guangzhou) were used in this experiment. Animals were maintained in the Laboratory Animal Center of the South China Agricultural University (SYXK 2014-0136, Guangzhou) in accordance with the National Standards for Laboratory Animals in China (GB 14925–2010). Neutropenia was generated by intraperitoneal injection of cyclophosphamide [TCI (Shanghai) Development Co., Ltd., Shanghai, China) 4 days before the 150-mg/kg dose and 1 day before the 100-mg/kg dose prior to lung infection ([Vogelman et al., 1988]). Three strains, namely, D18, T5, and WJ11, were incubated in MH II broth. Experimental mice were anesthetized via inhalation of isoflurane and then were hung on an adjustable-angled bracket by hooking their teeth. Endotracheal intubation was performed by importing 50 μL of a logarithmic-phase bacterial suspension (10^8–10^9 CFU/mL) into the lung through the larynges rimae using a preinserted tracheal tube ([Zhou et al., 2018]). All experimental protocols were approved by the Committee on the Ethics of Animals of South China Agricultural University.

[2] = PK in plasma and lung tissue of neutropenic lung-infected mice; details: for AUC(0-t): Plasma AUClast; for Cmax: Plasma Cmax
Excerpt: as §1
Pharmacokinetics analysis of colistin (2.5 and 5 mg/kg), gamithromycin (1.5, 3, 6, 12, and 24 mg/kg) alone and in combination (2.5 mg/kg colistin, 3 mg/kg gamithromycin) was performed in 176 neutropenic lung-infected ICR mice following subcutaneous administration (SC). Plasma and lung tissue samples were withdrawn at the specified time point (four mice at each time point).
The concentration of colistin and gamithromycin in plasma and lung tissue was measured using a previously reported method ([Ma et al., 2008]; [Huang et al., 2010]; [Fu et al., 2018]). The limit of quantification for both colistin and gamithromycin was 0.01 mg/L in plasma and 0.2 μg/g in lung tissue. Recovery of colistin and gamithromycin in plasma and lung ranged between 88.2 and 113.1%. All inter- and intra-assay coefficients of variation were <10%. PK parameters in plasma and lung samples were estimated using a non-compartmental analysis method with WinNonlin software version 5.2.1 (Pharsight, St Louis, MO, United States).

[3] = test system: Pasteurella multocida strains (D18, T5, and WJ11); experiment: Mutant prevention concentration (MPC); format: cell-based; details: drug alone, agar, 72 h, 37°C
Experimental: The bacteria-containing broth was centrifuged at 3500 g for 15 min and resuspended in fresh MH II broth to obtain a solution containing 3 × 10^10 CFU/mL of P. multocida. The agar plates were produced by adding different concentrations of colistin and gamithromycin alone or in combination into the Mueller-Hinton agar medium supplemented with sterile defibrinated sheep blood. Aliquots of 100-μL inoculum were plated on four agar plates containing the same concentration of drug(s). Mutant prevention concentration (MPC) was defined as the lowest concentration that prevented the growth of bacteria after 72 h of incubation at 37°C.

[4] = test system: Pasteurella multocida strains (D18, T5, and WJ11); experiment: In vitro postantibiotic effect (PAE); format: cell-based; details: 1 h exposure
Experimental: For determination of the postantibiotic effect (PAE) of colistin, gamithromycin was tested on D18, T5, and WJ11 isolates alone and in combination with colistin, and a 1 × 10^8 CFU/mL inoculum of each isolate was used after overnight incubation in MH II broth. A 0.5-mL sample of the inoculum and 0.5 mL of colistin or gamithromycin alone at 1 × or 4 × MIC, was added to 4 mL of fresh broth and incubated in a 37°C water bath for 1 h. Meanwhile, the same operation was performed for combinations of colistin at 0.25–0.5 mg/L and gamithromycin at 0.125–0.25 mg/L. Controls without drugs were included. Each inoculum was diluted 1000-fold after incubation for 1 h, and this was the starting point for PAE testing (0 h). Aliquots of 0.1 mL were withdrawn to count the bacterial burden as described above in time-kill tests at 0, 1, 2, 4, and 6 h. PAE was calculated using the equation: PAE = T – C, where T and C represent the time taken for drug-exposed (T) and control (C) cultures to increase by 1 log10 after drugs were removed ([Mackenzie and Gould, 1993]).

[5] = test system: Pasteurella multocida strains; experiment: Checkerboard combination susceptibility testing (MIC in combination, FIC index); format: cell-based; details: colistin combined with gamithromycin, 37°C 24 h
Experimental: The susceptibility of the selected P. multocida isolates and the quality control isolate (ATCC 25922) to colistin, gamithromycin, cefquinome, enrofloxacin, tilmicosin, tylosin tartrate, and florfenicol alone was determined using the microdilution method in broth (conducted in triplicate) according to the guiding principles of the CLSI. Based on the action mechanism of each drug, the antimicrobial activity of colistin or cefquinome (drug A) in combination with gamithromycin, enrofloxacin, tilmicosin, tylosin tartrate, or florfenicol (drug B) was determined with the checkerboard method, according to the minimal inhibitory concentration (MIC) of each drug. Briefly, 50 μL of MH II broth was added to each well, and 50 μL of the indicated concentration of colistin or cefquinome was added into the first well of each line. This was followed by multiproportion dilution. Next, 50-μL samples of different concentrations of gamithromycin or the other drugs mentioned above were added to the dilution medium, and a 100 μL inoculum with a cell density of ∼1 × 10^6 colony-forming units (CFU)/mL was added to each well. The plates were then incubated at 37°C for 24 h. According to the EUCAST definitive document E.Def 1.2 ([Mccullough, 2010]), the fractional inhibitory concentration (FIC) index for combined administrations was defined as the sum of the FIC of drug A and the FIC of drug B, where FIC is the MIC of the drug combined with other drugs, divided by the MIC of the drug alone.

[6] = strain D18, 1 × MIC (colistin 32 mg/L, gamithromycin 0.5 mg/L)
[7] = strain T5, 1 × MIC (colistin 32 mg/L, gamithromycin 0.5 mg/L)
[8] = strain WJ11, 1 × MIC (colistin 1 mg/L, gamithromycin 0.5 mg/L)
[9] = colistin 2.5 mg/kg SC alone, neutropenic lung-infected mice, lung tissue
[10] = colistin 5 mg/kg SC alone, neutropenic lung-infected mice, lung tissue
[11] = female, ICR, mouse, in vivo, sc, 2.5 mg/kg, colistin 2.5 mg/kg SC alone, neutropenic lung-infected mice, total plasma
[12] = female, ICR, mouse, in vivo, sc, 2.5 mg/kg, given in combination SC (2.5 mg/kg colistin, 3 mg/kg gamithromycin), total plasma
[13] = female, ICR, mouse, in vivo, sc, 5 mg/kg, colistin 5 mg/kg SC alone, neutropenic lung-infected mice, total plasma
[14] = given in combination SC (2.5 mg/kg colistin, 3 mg/kg gamithromycin), lung tissue

## CCCN1C[C@H](C)[C@@H](O)[C@](C)(O)[C@@H](CC)OC(=O)[C@H](C)[C@@H](O[C@H]2C[C@@](C)(OC)[C@@H](O)[C@H](C)O2)[C@H](C)[C@@H](O[C@@H]2O[C@H](C)C[C@H](N(C)C)[C@H]2O)[C@](C)(O)C[C@H]1C [Gamithromycin]
[1]; gamithromycin monotherapy every 12 h
  dose required for effective treatment: ≥ 24 mg/kg
[2]; mouse, in vivo
  time of Cmax in lung tissue: 0.25 to 1 h
[2]; mouse, in vivo, SD
  Lung T1/2: 1355 ± 111 min
  Lung Tmax: 39 ± 17.4 min
  Plasma T1/2: 731.4 ± 19.8 min
  Plasma Tmax: 27 ± 12.6 min
[3]; strain D18
  MPC: 1 mg/L
[3]; strain T5
  MPC: 1 mg/L
[3]; strain WJ11
  MPC: 1 mg/L
[4]; [6]
  PAE: 0.21 h
[4]; strain D18, 4 × MIC
  PAE: 0.51 h
[4]; [7]
  PAE: 0.54 h
[4]; strain T5, 4 × MIC
  PAE: 1.83 h
[4]; [8]
  PAE: 0.59 h
[4]; strain WJ11, 4 × MIC
  PAE: 1.16 h
[5]; strain CVCC 444
  MIC (in combination): 0.25 µg/mL
[5]; strain D18
  MIC (in combination): 0.0625 µg/mL
[5]; strain PmP2 (pig)
  MIC (in combination): 0.125 µg/mL
[5]; strain PmP17 (pig)
  MIC (in combination): 0.0625 µg/mL
[5]; strain T5
  MIC (in combination): 0.125 µg/mL
[5]; strain WJ11
  MIC (in combination): 0.25 µg/mL
[5]; strain WN71
  MIC (in combination): 0.25 µg/mL
[5]; strain WW81
  MIC (in combination): 0.25 µg/mL
[5]; strain XX12
  MIC (in combination): 0.0625 µg/mL

## CC[C@H](C)CCCCC(=O)N[C@@H](CCN)C(=O)N[C@H](C(=O)N[C@@H](CCN)C(=O)N[C@H]1CCNC(=O)[C@H]([C@@H](C)O)NC(=O)[C@H](CCN)NC(=O)[C@H](CCN)NC(=O)[C@H](CC(C)C)NC(=O)[C@@H](CC(C)C)NC(=O)[C@H](CCN)NC1=O)[C@@H](C)O [Colistin] (X1-[Dab]T[Dab][Dab][Dab][dL]L[Dab][Dab]T; lactam 4-C)
[1]; colistin alone 2.5 or 5 mg/kg SC every 12 h, all three isolates, 24 h
  in vivo PD outcome: failure to inhibit growth of bacteria
[2]; [9]
  Lung AUClast: 5.22 mg⋅h/kg
  Lung Cmax: 3.37 mg/kg
  Lung T1/2: 76.8 min
  Lung Tmax: 30 min
[2]; colistin 2.5 mg/kg SC alone, neutropenic lung-infected mice, total plasma, non-compartmental
  Plasma Tmax: 30 min
[2]; [10]
  Lung AUClast: 12.20 mg⋅h/kg
  Lung Cmax: 5.54 mg/kg
  Lung T1/2: 103 min
  Lung Tmax: 45 min
[2]; [11]
  AUC(0-t): 3510 ng·h/mL
  Cmax: 3140 ng/mL
[2]; [12]
  AUC(0-t): 3880 ng·h/mL
  Cmax: 3330 ng/mL
[2]; female, ICR, mouse, in vivo, sc, 2.5 mg/kg, Plasma T1/2, colistin 2.5 mg/kg SC alone, neutropenic lung-infected mice, total plasma
  half-life: 40.2 min
[2]; female, ICR, mouse, in vivo, sc, 2.5 mg/kg, Plasma T1/2, given in combination SC (2.5 mg/kg colistin, 3 mg/kg gamithromycin), total plasma
  half-life: 36.6 min
[2]; female, ICR, mouse, in vivo, sc, 5 mg/kg
  Tmax: 45 min
[2]; [13]
  AUC(0-t): 10500 ng·h/mL
  Cmax: 6330 ng/mL
[2]; female, ICR, mouse, in vivo, sc, 5 mg/kg, Plasma T1/2, colistin 5 mg/kg SC alone, neutropenic lung-infected mice, total plasma
  half-life: 49.8 min
[2]; [14]
  Lung AUClast: 5.10 mg⋅h/kg
  Lung Cmax: 2.94 mg/kg
  Lung T1/2: 69.6 min
  Lung Tmax: 30 min
[3]; strain D18
  MPC: 128 mg/L
[3]; strain T5
  MPC: 128 mg/L
[3]; strain WJ11
  MPC: 64 mg/L
[4]; [6]
  PAE: 0.98 h
[4]; strain D18, 4 × MIC
  PAE: 3.79 h
[4]; [7]
  PAE: 0.29 h
[4]; strain T5, 4 × MIC
  PAE: 2.83 h
[4]; [8]
  PAE: 0.96 h
[4]; strain WJ11, 4 × MIC
  PAE: 2.34 h
[5]; strain CVCC 444
  MIC (in combination): 0.125 µg/mL
[5]; strain D18
  MIC (in combination): 0.25 µg/mL
[5]; strain PmP2 (pig)
  MIC (in combination): 0.125 µg/mL
[5]; strain PmP17 (pig)
  MIC (in combination): 0.125 µg/mL
[5]; strain T5
  MIC (in combination): 0.125 µg/mL
[5]; strain WJ11
  MIC (in combination): 0.125 µg/mL
[5]; strain WN71
  MIC (in combination): 0.0625 µg/mL
[5]; strain WW81
  MIC (in combination): 0.5 µg/mL
[5]; strain XX12
  MIC (in combination): 0.125 µg/mL
